Test results from ChEMBL document CHEMBL6087437 (J Med Chem, 2025).
Active and inactive are the calls of the source. The calls are words filed in the database; no cut-off is given here.

What was measured:
[1] = molecular target: Voltage-gated inwardly rectifying potassium channel KCNH2 (Homo sapiens, UniProt Q12809); assay: Inhibition of human ERG; format: toxicity
[2] = Tmax in female C57BL/6J mouse at 50 mg/kg, ip; format: ADME, organism-based; settings: in vivo
[3] = Half-life in female C57BL/6J mouse at 25 mg/kg, ip; format: ADME, organism-based; settings: in vivo
Bundibugyo virus = assay: Antiviral activity against pseudotyped Bundibugyo ebolavirus expressing glycoprotein infected in human A549 cells assessed as inhibition of viral entry incubated for 48 hrs by Neolite reporter gene assay; format: functional, organism-based; settings: A549, 48 h
[4] = AUC in female C57BL/6J mouse at 25 mg/kg, ip; format: ADME, organism-based; settings: in vivo
[5] = Cmax in female C57BL/6J mouse at 50 mg/kg, ip; format: ADME, organism-based; settings: in vivo
Ebolavirus [6] = assay: Antiviral activity against pseudotyped Ebola virus expressing glycoprotein infected in human A549 cells assessed as inhibition of viral entry incubated for 48 hrs by Neolite reporter gene assay; format: functional, organism-based; settings: Orthoebolavirus, A549, 48 h
Ebolavirus [7] = assay: Antiviral activity against wildtype Ebola virus infected in human HeLa cells incubated for 40 hrs by Hoechst 33342 staining based Cytation-1 automated microscopic analysis; format: functional, organism-based; settings: Orthoebolavirus
Reston ebolavirus = assay: Antiviral activity against pseudotyped Reston ebolavirus expressing glycoprotein infected in human A549 cells assessed as inhibition of viral entry incubated for 48 hrs by Neolite reporter gene assay; format: functional, organism-based; settings: A549, 48 h
Sudan ebolavirus = assay: Antiviral activity against pseudotyped Sudan ebolavirus expressing glycoprotein infected in human A549 cells assessed as inhibition of viral entry incubated for 48 hrs by Neolite reporter gene assay; format: functional, organism-based; settings: A549, 48 h
CYP3A4 = CYP3A4 (Homo sapiens, UniProt P08684); assay: Inhibition of CYP3A4 in human liver microsomes using midazolam as substrate at 10 uM preincubated for 5 mins followed by substrate addition and measured after 20 mins by LC-MS analysis relative to control; format: ADME, Microsome; settings: probe midazolam, time 25 min
Influenza A virus = assay: Antiviral activity against pseudotyped Influenza A virus A/Goose/Qinghai/59/05(H5N1) infected in human A549 cells assessed as inhibition of viral entry incubated for 48 hrs by Neolite reporter gene assay; format: functional, organism-based
HeLa = assay: Cytotoxicity against human HeLa cells by Celltiter-Glo luminescent cell viability assay; format: toxicity, cell-based
Tai Forest ebolavirus = assay: Antiviral activity against pseudotyped Tai Forest ebolavirus expressing glycoprotein infected in human A549 cells assessed as inhibition of viral entry incubated for 48 hrs by Neolite reporter gene assay; format: functional, organism-based; settings: A549, 48 h
[8] = Clearance in female C57BL/6J mouse at 25 mg/kg, ip; format: ADME, organism-based; settings: in vivo
CYP2D6 = CYP2D6 (Homo sapiens, UniProt P10635); assay: Inhibition of CYP2D6 in human liver microsomes using dextromethorphan as substrate at 10 uM preincubated for 5 mins followed by substrate addition and measured after 20 mins by LC-MS analysis relative to control; format: ADME, Microsome; settings: probe dextromethorphan, time 25 min
[9] = Toxicity in female C57BL/6J mouse assessed as adverse effect at 25 to 50 mg/kg, ip; format: organism-based; settings: in vivo, dose 25-50 mg/kg
[10] = AUC in female C57BL/6J mouse at 50 mg/kg, ip; format: ADME, organism-based; settings: in vivo
[11] = Stability in human plasma assessed as parent compound remaining at 2 uM measured after 60 mins by LC-MS/MS analysis; format: ADME, cell-free; settings: read-out: Stability
[12] = test system: Vesicular stomatitis virus; assay: Antiviral activity against pseudotyped vesicular stomatitis virus expressing glycoprotein infected in human A549 cells assessed as inhibition of viral entry incubated for 48 hrs by Neolite reporter gene assay; format: functional, organism-based
Marburgvirus = assay: Antiviral activity against pseudotyped Marburg virus expressing glycoprotein infected in human A549 cells assessed as inhibition of viral entry incubated for 48 hrs by Neolite reporter gene assay; format: functional, organism-based; settings: Orthomarburgvirus, A549, 48 h
CYP2C9 = CYP2C9 (Homo sapiens, UniProt P11712); assay: Inhibition of CYP2C9 in human liver microsomes using tolbutamide as substrate at 10 uM preincubated for 5 mins followed by substrate addition and measured after 20 mins by LC-MS analysis relative to control; format: ADME, Microsome; settings: probe tolbutamide, time 25 min
[13] = Metabolic stability in human liver microsomes assessed as parent compound remaining measured after 60 mins in presence of NADPH by LC-MS/MS analysis; format: ADME, Microsome; settings: read-out: Stability
[14] = Half-life in female C57BL/6J mouse at 50 mg/kg, ip; format: ADME, organism-based; settings: in vivo
Zaire ebolavirus = assay: Antiviral activity against pseudotyped Zaire ebolavirus expressing glycoprotein infected in human A549 cells assessed as inhibition of viral entry incubated for 48 hrs by Neolite reporter gene assay; format: functional, organism-based; settings: A549, 48 h
[15] = Cmax in female C57BL/6J mouse at 25 mg/kg, ip; format: ADME, organism-based; settings: in vivo
[16] = Clearance in female C57BL/6J mouse at 50 mg/kg, ip; format: ADME, organism-based; settings: in vivo
[17] = Tmax in female C57BL/6J mouse at 25 mg/kg, ip; format: ADME, organism-based; settings: in vivo
[18] = Stability in mouse plasma assessed as parent compound remaining at 2 uM measured after 60 mins by LC-MS/MS analysis; format: ADME, cell-free; settings: read-out: Stability
[19] = Metabolic stability in BALB/c mouse liver microsomes assessed as parent compound remaining measured after 60 mins in presence of NADPH by LC-MS/MS analysis; format: ADME, Microsome; settings: read-out: Stability
CYP1A2 = molecular target: T1, CYP1A2 (Homo sapiens, UniProt P05177); assay: Inhibition of CYP1A2 in human liver microsomes using phenacetin as substrate at 10 uM preincubated for 5 mins followed by substrate addition and measured after 20 mins by LC-MS analysis relative to control; format: ADME, Microsome; settings: probe phenacetin, time 25 min
T1 sequence (P05177 whole entry): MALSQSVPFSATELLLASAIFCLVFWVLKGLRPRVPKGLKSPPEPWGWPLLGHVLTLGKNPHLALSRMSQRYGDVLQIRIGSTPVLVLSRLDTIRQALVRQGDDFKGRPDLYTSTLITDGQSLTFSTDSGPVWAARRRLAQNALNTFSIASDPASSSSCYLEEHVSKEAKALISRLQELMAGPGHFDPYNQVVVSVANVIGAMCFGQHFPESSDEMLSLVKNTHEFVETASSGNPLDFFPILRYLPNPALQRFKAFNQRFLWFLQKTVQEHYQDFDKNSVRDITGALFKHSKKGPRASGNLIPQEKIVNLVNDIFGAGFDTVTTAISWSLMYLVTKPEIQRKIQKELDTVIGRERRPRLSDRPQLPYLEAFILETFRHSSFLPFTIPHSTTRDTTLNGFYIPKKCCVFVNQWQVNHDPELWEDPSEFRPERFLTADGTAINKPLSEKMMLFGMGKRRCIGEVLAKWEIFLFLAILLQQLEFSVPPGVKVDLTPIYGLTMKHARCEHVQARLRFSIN

[20] = Selectivity index, ratio of CC50 for human A549 cells to EC50 for pseudotyped Ebola virus expressing glycoprotein infected in human A549 cells; format: toxicity, cell-based; settings: read-out: Ratio CC50/EC50
A549 = assay: Induction of phospholipidosis in human A549 cells at 10 uM incubated for 48 hrs by Hoechst 33342 staining based fluorescence imaging analysis; format: functional, cell-based
[21] = Selectivity index, ratio of CC50 for human HeLa cells to EC50 for antiviral activity against wildtype Ebolavirus infected in human HeLa cells; format: toxicity, cell-based; settings: read-out: Ratio CC50/EC50

CYP2D6, sequence (P10635 whole entry): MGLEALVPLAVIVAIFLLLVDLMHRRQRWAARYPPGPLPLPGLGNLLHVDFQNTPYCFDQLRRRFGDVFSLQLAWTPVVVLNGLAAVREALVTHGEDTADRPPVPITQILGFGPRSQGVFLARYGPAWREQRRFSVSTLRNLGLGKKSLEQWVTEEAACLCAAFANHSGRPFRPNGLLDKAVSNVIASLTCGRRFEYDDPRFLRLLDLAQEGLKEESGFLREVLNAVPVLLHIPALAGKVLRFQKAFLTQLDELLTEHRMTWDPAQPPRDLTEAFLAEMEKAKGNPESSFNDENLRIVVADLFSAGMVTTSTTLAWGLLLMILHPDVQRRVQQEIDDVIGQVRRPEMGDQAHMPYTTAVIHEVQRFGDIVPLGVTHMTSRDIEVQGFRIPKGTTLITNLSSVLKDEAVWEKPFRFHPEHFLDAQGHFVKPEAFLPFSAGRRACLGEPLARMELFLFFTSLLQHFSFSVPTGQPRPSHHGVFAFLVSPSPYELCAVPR
CYP2C9, sequence (P11712 whole entry): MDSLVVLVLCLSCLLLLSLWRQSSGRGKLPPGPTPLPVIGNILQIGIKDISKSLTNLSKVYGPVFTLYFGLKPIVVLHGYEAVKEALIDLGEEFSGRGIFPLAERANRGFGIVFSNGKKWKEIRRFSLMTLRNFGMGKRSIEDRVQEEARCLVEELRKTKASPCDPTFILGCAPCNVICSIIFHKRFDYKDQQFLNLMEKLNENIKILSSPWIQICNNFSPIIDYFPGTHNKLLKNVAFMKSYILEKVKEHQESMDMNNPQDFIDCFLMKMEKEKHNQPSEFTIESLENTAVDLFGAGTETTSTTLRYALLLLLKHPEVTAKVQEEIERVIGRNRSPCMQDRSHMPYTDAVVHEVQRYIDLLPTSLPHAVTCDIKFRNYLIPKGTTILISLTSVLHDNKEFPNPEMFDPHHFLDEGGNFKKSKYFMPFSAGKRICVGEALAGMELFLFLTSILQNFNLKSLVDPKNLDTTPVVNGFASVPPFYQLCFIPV
Voltage-gated inwardly rectifying potassium channel KCNH2, sequence (Q12809 whole entry): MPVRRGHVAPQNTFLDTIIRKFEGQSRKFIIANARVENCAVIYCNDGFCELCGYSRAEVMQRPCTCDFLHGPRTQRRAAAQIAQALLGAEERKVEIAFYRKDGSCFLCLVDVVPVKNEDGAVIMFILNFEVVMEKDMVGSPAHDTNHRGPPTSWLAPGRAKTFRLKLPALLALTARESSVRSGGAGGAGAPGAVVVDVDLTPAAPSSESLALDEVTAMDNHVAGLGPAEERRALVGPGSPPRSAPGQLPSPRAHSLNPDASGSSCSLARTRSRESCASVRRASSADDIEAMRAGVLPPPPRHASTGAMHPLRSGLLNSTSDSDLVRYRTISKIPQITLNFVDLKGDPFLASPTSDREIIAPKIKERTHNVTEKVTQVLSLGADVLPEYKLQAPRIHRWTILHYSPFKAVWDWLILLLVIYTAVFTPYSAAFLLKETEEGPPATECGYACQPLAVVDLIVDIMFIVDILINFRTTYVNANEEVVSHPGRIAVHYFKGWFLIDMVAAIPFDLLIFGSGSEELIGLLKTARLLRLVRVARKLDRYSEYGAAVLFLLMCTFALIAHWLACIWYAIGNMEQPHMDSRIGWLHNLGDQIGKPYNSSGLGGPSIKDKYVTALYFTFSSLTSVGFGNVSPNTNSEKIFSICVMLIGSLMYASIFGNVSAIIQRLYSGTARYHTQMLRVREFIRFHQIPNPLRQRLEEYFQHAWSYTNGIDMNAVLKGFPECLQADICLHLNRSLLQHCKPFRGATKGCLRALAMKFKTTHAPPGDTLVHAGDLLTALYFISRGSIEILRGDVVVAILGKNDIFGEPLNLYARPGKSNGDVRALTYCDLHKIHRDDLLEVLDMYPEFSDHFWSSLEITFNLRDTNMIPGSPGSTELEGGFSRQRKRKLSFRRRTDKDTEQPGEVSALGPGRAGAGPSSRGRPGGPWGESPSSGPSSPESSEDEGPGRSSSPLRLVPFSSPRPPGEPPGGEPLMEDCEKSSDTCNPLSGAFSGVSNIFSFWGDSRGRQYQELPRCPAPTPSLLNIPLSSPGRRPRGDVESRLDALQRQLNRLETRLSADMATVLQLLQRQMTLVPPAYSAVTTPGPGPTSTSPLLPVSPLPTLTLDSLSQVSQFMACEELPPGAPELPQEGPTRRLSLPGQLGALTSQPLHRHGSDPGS
CYP3A4, sequence (P08684 whole entry): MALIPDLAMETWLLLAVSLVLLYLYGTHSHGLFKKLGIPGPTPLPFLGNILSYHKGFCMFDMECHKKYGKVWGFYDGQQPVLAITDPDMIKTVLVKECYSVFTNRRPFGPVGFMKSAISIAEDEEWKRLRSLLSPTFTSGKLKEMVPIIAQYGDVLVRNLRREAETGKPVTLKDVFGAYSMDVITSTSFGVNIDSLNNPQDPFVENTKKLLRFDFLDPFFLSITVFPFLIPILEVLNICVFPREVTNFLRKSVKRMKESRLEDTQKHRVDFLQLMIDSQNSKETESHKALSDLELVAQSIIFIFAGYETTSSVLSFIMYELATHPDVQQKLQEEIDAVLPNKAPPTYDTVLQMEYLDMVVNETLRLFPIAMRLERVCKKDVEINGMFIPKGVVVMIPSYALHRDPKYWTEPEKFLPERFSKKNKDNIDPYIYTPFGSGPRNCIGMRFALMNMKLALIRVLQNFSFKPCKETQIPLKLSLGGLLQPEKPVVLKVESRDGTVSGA

SMILES	IC50 [1] [nM]	Tmax [2] [h]	half-life [3] [h]	EC50 (Bundibugyo virus) [nM]	AUC [4] [ng·h/mL]	Cmax [5] [ng/mL]	EC50 (Ebolavirus [6]) [nM]	EC50 (Ebolavirus [7]) [nM]	EC50 (Reston ebolavirus) [nM]	EC50 (Sudan ebolavirus) [nM]	inhibition (Influenza A virus)	CC50 (HeLa) [nM]	EC50 (Tai Forest ebolavirus) [nM]	CL/F [8] [mL/min/kg]	inhibition at 20 min, 10 µM (CYP2D6) [%]	AUC [10] [ng·h/mL]	remaining at 1 h, 2 µM [11] [%]	inhibition [12]	EC50 (Marburgvirus) [nM]	inhibition at 20 min, 10 µM (CYP2C9) [%]	also measured
O=C(Nc1ccc(N2CCC3(CCC3)CC2)c(C(F)(F)F)c1)c1ccc(CN2C[C@@H]3C[C@H]2CO3)nc1	1500	1	3.4	840	14300	6790	120	440	300	2140	Weak_effect	19100	290	29.2	35.2	34400	~100	Weak_effect	680	66.4	inhibition at 20 min, 10 µM (CYP3A4): 4.9%; Activity [9]: Non-toxic; remaining at 1 h [13]: 60%; half-life [14]: 4.8 h; EC50 (Zaire ebolavirus): 120 nM; Cmax [15]: 2170 ng/mL; CL/F [16]: 24.3 mL/min/kg; Tmax [17]: 0.5 h; remaining at 1 h, 2 µM [18]: 90%; remaining at 1 h [19]: 77%; inhibition at 20 min, 10 µM (CYP1A2): 5.4%
O=C(Nc1ccc(N2CCC3(CCC3)CC2)c(C(F)(F)F)c1)c1ccc(C(=O)N2C[C@@H]3C[C@H]2CO3)nc1	9400	0.7	1.4	210	20700	14600	160	730	210	890	Weak_effect	47700	110	20.2	24.9	57800	~100	Weak_effect	2240	56.6	selectivity ratio [20]: 258; remaining at 1 h [13]: 83.6%; Activity (A549): inactive; half-life [14]: 1.9 h; EC50 (Zaire ebolavirus): 160 nM; Cmax [15]: 5370 ng/mL; CL/F [16]: 14.4 mL/min/kg; Tmax [17]: 1.7 h; remaining at 1 h, 2 µM [18]: 97%; remaining at 1 h [19]: 84%; selectivity ratio [21]: 65; inhibition at 20 min, 10 µM (CYP1A2): 13.5%
